Assay results: ChEMBL document CHEMBL1201862, “PubChem BioAssay data set” (2004)
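Briefly, cells in 96-well plates were exposed to five compound concentrations for 48 h, and endpoints were estimated by linear interpolation. Abbreviation: GI50, concentration required for 50% inhibition of growth.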 Calls of active or inactive are those of the source. No stated cut-off is given here; in the data, active = GI50 up to about 1.1 µM and inactive = higher.

Columns and labels:
Test in all cases: NCI anticancer screen, dose series, 48 h
Hs-578T = test system: Hs-578T
CAKI-1 = test system: CAKI-1
COLO 205 = test system: COLO 205
OVCAR-3 = test system: OVCAR-3
M14 = test system: M14
A549 = test system: A549
ACHN = test system: ACHN
Malme-3M = test system: Malme-3M
T47D = test system: T47D
SF-295 = test system: SF-295
K562 = test system: K562
HCT-116 = test system: HCT-116
MOLT-4 = test system: MOLT-4
HOP-62 = test system: HOP-62
MDA-N = test system: MDA-N
DU-145 = test system: DU-145
SF-539 = test system: SF-539
HCC 2998 = test system: HCC 2998
NCI/ADR-RES = test system: NCI/ADR-RES
BT-549 = test system: BT-549
KM12 = test system: KM12
HT-29 = test system: HT-29
MDA-MB-435 = test system: MDA-MB-435
UACC-257 = test system: UACC-257
SK-MEL-2 = test system: SK-MEL-2
SNB-75 = test system: SNB-75
786-0 = test system: 786-0
NCI-H226 = test system: NCI-H226
SK-MEL-28 = test system: SK-MEL-28
HL-60 = test system: HL-60
SNB-19 = test system: SNB-19
SK-OV-3 = test system: SK-OV-3
NCI-H522 = test system: NCI-H522
CCRF-CEM = test system: CCRF-CEM
SK-MEL-5 = test system: SK-MEL-5
UACC-62 = test system: UACC-62
EKVX = test system: EKVX
RXF 393 = test system: RXF 393
IGROV-1 = test system: IGROV-1
OVCAR-5 = test system: OVCAR-5
SN12C = test system: SN12C
A498 = test system: A498
NCI-H460 = test system: NCI-H460
MDA-MB-231 = test system: MDA-MB-231
OVCAR-4 = test system: OVCAR-4
LOX IMVI = test system: LOX IMVI
HCT-15 = test system: HCT-15
MCF7 = test system: MCF7
TK-10 = test system: TK-10
HOP-92 = test system: HOP-92
RPMI-8226 = test system: RPMI-8226
UO-31 = test system: UO-31
SW-620 = test system: SW-620
SR = test system: SR
U-251 = test system: U-251
PC-3 = test system: PC-3
SF-268 = test system: SF-268
NCI-H23 = test system: NCI-H23
OVCAR-8 = test system: OVCAR-8
XF498 = test system: XF498
DMS-273 = test system: DMS-273
LXFL 529 = test system: LXFL 529
M19-MEL = test system: M19-MEL
DLD-1 = test system: DLD-1
KM-20L2 = test system: KM-20L2
DMS-114 = test system: DMS-114

Measured: GI50

NS(=O)(=O)c1ccc(NC2(C(=O)O)CCCC2)cc1
> 100 µM: HCT-15
inactive: Hs-578T > 100 µM | CAKI-1 > 100 µM | COLO 205 > 100 µM | OVCAR-3 > 100 µM | M14 > 100 µM | A549 > 100 µM | ACHN > 100 µM | Malme-3M > 100 µM | T47D > 100 µM | SF-295 > 100 µM | K562 > 100 µM | HCT-116 > 100 µM | MOLT-4 > 100 µM | HOP-62 > 100 µM | MDA-N > 100 µM | DU-145 > 100 µM | SF-539 > 100 µM | HCC 2998 > 100 µM | NCI/ADR-RES > 100 µM | BT-549 > 100 µM | KM12 > 100 µM | HT-29 > 100 µM | MDA-MB-435 > 100 µM | UACC-257 > 100 µM | SK-MEL-2 > 100 µM | SNB-75 > 100 µM | 786-0 > 100 µM | NCI-H226 > 100 µM | SK-MEL-28 > 100 µM | HL-60 > 100 µM | SNB-19 > 100 µM | SK-OV-3 > 100 µM | NCI-H522 > 100 µM | CCRF-CEM > 100 µM | SK-MEL-5 > 100 µM | UACC-62 > 100 µM | EKVX > 100 µM | RXF 393 > 100 µM | IGROV-1 > 100 µM | OVCAR-5 > 100 µM | SN12C > 100 µM | A498 > 100 µM | NCI-H460 > 100 µM | MDA-MB-231 > 100 µM | OVCAR-4 > 100 µM | LOX IMVI > 100 µM | MCF7 > 100 µM | TK-10 > 100 µM | HOP-92 > 100 µM | RPMI-8226 > 100 µM | UO-31 > 100 µM | SW-620 > 100 µM | SR > 100 µM | U-251 > 100 µM | PC-3 > 100 µM | SF-268 > 100 µM | NCI-H23 > 100 µM | OVCAR-8 > 100 µM

Cn1cc(C(=O)C[n+]2ccccc2)c2ccccc21
inactive: XF498 86.9 µM | DMS-273 42.3 µM | CAKI-1 30.3 µM | COLO 205 52.2 µM | OVCAR-3 20.9 µM | M14 > 100 µM | LXFL 529 > 10 µM | A549 50.6 µM | ACHN > 100 µM | Malme-3M 69.7 µM | SF-295 38.4 µM | K562 33.6 µM | HCT-116 > 100 µM | MOLT-4 54.7 µM | M19-MEL 59.8 µM | HOP-62 83.8 µM | SF-539 78.3 µM | HCC 2998 > 100 µM | KM12 50.2 µM | HT-29 48.5 µM | DLD-1 > 100 µM | UACC-257 > 100 µM | SK-MEL-2 > 100 µM | SNB-75 69.2 µM | 786-0 > 100 µM | NCI-H226 12.5 µM | HL-60 > 100 µM | SNB-19 52.8 µM | NCI-H522 56 µM | CCRF-CEM 61.9 µM | SK-MEL-5 > 100 µM | UACC-62 > 100 µM | EKVX 11.9 µM | IGROV-1 72.1 µM | SN12C 62.4 µM | A498 28.9 µM | NCI-H460 > 100 µM | OVCAR-4 46.1 µM | LOX IMVI > 100 µM | TK-10 > 100 µM | RPMI-8226 > 100 µM | UO-31 > 100 µM | KM-20L2 33 µM | SW-620 > 100 µM | SR > 100 µM | DMS-114 49.7 µM | NCI-H23 > 100 µM | OVCAR-8 58.6 µM
> 100 µM: HCT-15
